What was measured:
[1] = tested on: BT-474 Tam1; experiment: drug sensitivity score (DSS) (DSS (dimensionless)); higher = more sensitive; extreme values may be limits of the assay; conditions: 4-OH-tamoxifen in medium 1 µM; 72 h
Procedure: (§1)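 FIMM FO2B library drugs were tested at 5 concentrations (10,000-fold range) for 72 h, with CellTiter-Glo viability normalised to DMSO and benzethonium chloride controls. The Drug Sensitivity Score (DSS) is computed from the fitted logistic dose-response curve (area-based; 0 = inactive). Resistant lines and the 'in 1µM tamoxifen' arms were tested in 1 µM 4-OH-tamoxifen.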

[2] = tested on: BT-474 Tam2; experiment: as above; conditions: 4-OH-tamoxifen in medium 1 µM; 72 h
Procedure: as §1

[3] = tested on: BT-474; experiment: as above; conditions: 72 h
Procedure: as §1

[4] = tested on: MCF-7 Tam1; experiment: as above; conditions: 4-OH-tamoxifen in medium 1 µM; 72 h
Procedure: as §1

[5] = tested on: MCF-7; experiment: as above; conditions: 72 h
Procedure: as §1

[6] = tested on: T-47D Tam1; experiment: as above; conditions: 4-OH-tamoxifen in medium 1 µM; 72 h
Procedure: as §1

[7] = tested on: T-47D Tam2; experiment: as above; conditions: 4-OH-tamoxifen in medium 1 µM; 72 h
Procedure: as §1

[8] = tested on: T-47D; experiment: as above; conditions: 72 h
Procedure: as §1

[9] = tested on: ZR-75-1 Tam1; experiment: as above; conditions: 4-OH-tamoxifen in medium 1 µM; 72 h
Procedure: as §1

[10] = tested on: ZR-75-1 Tam2; experiment: as above; conditions: 4-OH-tamoxifen in medium 1 µM; 72 h
Procedure: as §1

[11] = tested on: ZR-75-1; experiment: as above; conditions: 72 h
Procedure: as §1

[12] = tested on: BT-474 Tam1; experiment: relative IC50 (midpoint of fitted logistic curve, plateau may be below 50% inhibition; CellTiter-Glo viability); higher = less potent; conditions: 4-OH-tamoxifen in medium 1 µM; 72 h
Procedure: (§2)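 FIMM FO2B library drugs were plated at 5 concentrations spanning a 10,000-fold range in 384-well plates. Cells were incubated for 72 h at 37 °C and viability was read by CellTiter-Glo, normalised to DMSO (0% inhibition) and 100 µM benzethonium chloride (100% inhibition). IC50 values come from logistic dose-response fits (Breeze pipeline). Tamoxifen-resistant lines and the 'in 1µM tamoxifen' parental arms were tested in medium with 1 µM 4-OH-tamoxifen.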

[13] = tested on: BT-474; experiment: as above; conditions: 72 h
Procedure: as §2

[14] = tested on: T-47D Tam1; experiment: as above; conditions: 4-OH-tamoxifen in medium 1 µM; 72 h
Procedure: as §2

[15] = tested on: T-47D Tam2; experiment: as above; conditions: 4-OH-tamoxifen in medium 1 µM; 72 h
Procedure: as §2

[16] = tested on: T-47D; experiment: as above; conditions: 72 h
Procedure: as §2

[17] = tested on: ZR-75-1; experiment: as above; conditions: 72 h
Procedure: as §2

[18] = tested on: BT-474 Tam2; experiment: as above; conditions: 4-OH-tamoxifen in medium 1 µM; 72 h
Procedure: as §2

[19] = tested on: MCF-7; experiment: as above; conditions: 72 h
Procedure: as §2

[20] = tested on: MCF-7 Tam1; experiment: as above; conditions: 4-OH-tamoxifen in medium 1 µM; 72 h
Procedure: as §2

[21] = tested on: ZR-75-1 Tam1; experiment: as above; conditions: 4-OH-tamoxifen in medium 1 µM; 72 h
Procedure: as §2

[22] = tested on: ZR-75-1 Tam2; experiment: as above; conditions: 4-OH-tamoxifen in medium 1 µM; 72 h
Procedure: as §2

relative IC50 [12] [nM] | relative IC50 ([13]; 4-OH-tamoxifen in medium 0 µM) [nM] | relative IC50 ([13]; 4-OH-tamoxifen in medium 1 µM) [nM] | relative IC50 [14] [nM] | relative IC50 [15] [nM] | relative IC50 ([16]; 4-OH-tamoxifen in medium 1 µM) [nM] | relative IC50 [18] [nM] | relative IC50 ([19]; 4-OH-tamoxifen in medium 0 µM) [nM] | relative IC50 ([19]; 4-OH-tamoxifen in medium 1 µM) [nM] | relative IC50 ([16]; 4-OH-tamoxifen in medium 0 µM) [nM] | relative IC50 [20] [nM] | SMILES | drug sensitivity score [1] | drug sensitivity score [2] | drug sensitivity score ([3]; 4-OH-tamoxifen in medium 0 µM) | drug sensitivity score ([3]; 4-OH-tamoxifen in medium 1 µM) | drug sensitivity score [4] | drug sensitivity score ([5]; 4-OH-tamoxifen in medium 0 µM) | drug sensitivity score ([5]; 4-OH-tamoxifen in medium 1 µM) | drug sensitivity score [6] | drug sensitivity score [7] | drug sensitivity score ([8]; 4-OH-tamoxifen in medium 0 µM) | drug sensitivity score ([8]; 4-OH-tamoxifen in medium 1 µM) | drug sensitivity score [9] | drug sensitivity score [10] | drug sensitivity score ([11]; 4-OH-tamoxifen in medium 0 µM) | drug sensitivity score ([11]; 4-OH-tamoxifen in medium 1 µM) | relative IC50 ([17]; 4-OH-tamoxifen in medium 0 µM) [nM] | relative IC50 [21] [nM] | relative IC50 [22] [nM] | relative IC50 ([17]; 4-OH-tamoxifen in medium 1 µM) [nM]
853 | 719 | 1020 | 65.3 | 584 | 223 | 785 | 561 | 376 | 804 |  | CC(=O)OC[C@H]1O[C@@H]([S-])[C@H](OC(C)=O)[C@@H](OC(C)=O)[C@@H]1OC(C)=O.CCP(CC)CC.[Au+] [Auranofin] | 5 | 3.68 | 3.43 | 4.22 | 1.48 | 6.78 | 2.93 | 11.5 | 4.19 | 1.36 | 4.22 | 0.421 | 0.324 | 0.254 | 1.38 |  |  |  | 
> 800 | > 800 | > 800 | > 800 |  | > 800 | > 800 | > 800 | > 800 | > 800 | > 800 | CCCCC/C=C/C=C1/C(=O)C=C[C@@H]1C/C=C\CCCC(=O)O [15D-PGJ2] | 0 | 0 | 0 | 0 | 0 | 0 | 0 | 0 | 0.598 | 0 | 0 | 0 | 0 | 0 | 0 | > 800 | > 800 | > 800 | > 800
> 10000 | > 10000 |  | > 10000 |  | > 10000 | > 10000 | > 10000 | > 10000 | > 10000 | > 10000 | CCCS(=O)(=O)Nc1ccc(F)c(C(=O)c2c[nH]c3ncc(-c4ccc(Cl)cc4)cc23)c1F [Vemurafenib (PLX4032)] | 0 | 0 | 0 | 0.086 | 0 | 0 | 0 | 0 | 1.67 | 0 | 0 | 0 | 0 | 0 | 0 | > 10000 | > 10000 | > 10000 | 
> 10000 | > 10000 | > 10000 | > 10000 |  | > 10000 | > 10000 | > 10000 | > 10000 | > 10000 | > 10000 | CN(N=O)C(=O)N[C@@H](C=O)[C@@H](O)[C@H](O)[C@H](O)CO [Streptozocin] | 0 | 0 | 0 | 0 | 0 | 0 | 0 | 0 | 0 | 0 | 0 | 0 | 0 | 0 | 0 | > 10000 | > 10000 | > 10000 | > 10000

The remaining lines, values behind:

SMILES | relative IC50 [12] [nM] | relative IC50 ([13]; 4-OH-tamoxifen in medium 0 µM) [nM] | relative IC50 ([13]; 4-OH-tamoxifen in medium 1 µM) [nM] | relative IC50 [14] [nM] | relative IC50 [15] [nM] | relative IC50 ([16]; 4-OH-tamoxifen in medium 1 µM) [nM] | relative IC50 [18] [nM] | relative IC50 ([19]; 4-OH-tamoxifen in medium 0 µM) [nM] | relative IC50 ([19]; 4-OH-tamoxifen in medium 1 µM) [nM] | relative IC50 ([16]; 4-OH-tamoxifen in medium 0 µM) [nM] | relative IC50 [20] [nM] | drug sensitivity score [1] | drug sensitivity score [2] | drug sensitivity score ([3]; 4-OH-tamoxifen in medium 0 µM) | drug sensitivity score ([3]; 4-OH-tamoxifen in medium 1 µM) | drug sensitivity score [4] | drug sensitivity score ([5]; 4-OH-tamoxifen in medium 0 µM) | drug sensitivity score ([5]; 4-OH-tamoxifen in medium 1 µM) | drug sensitivity score [6] | drug sensitivity score [7] | drug sensitivity score ([8]; 4-OH-tamoxifen in medium 0 µM) | drug sensitivity score ([8]; 4-OH-tamoxifen in medium 1 µM) | drug sensitivity score [9] | drug sensitivity score [10] | drug sensitivity score ([11]; 4-OH-tamoxifen in medium 0 µM) | drug sensitivity score ([11]; 4-OH-tamoxifen in medium 1 µM) | relative IC50 ([17]; 4-OH-tamoxifen in medium 0 µM) [nM] | relative IC50 [21] [nM] | relative IC50 [22] [nM] | relative IC50 ([17]; 4-OH-tamoxifen in medium 1 µM) [nM]
Cc1ccc(C(=O)Nc2ccc(CN3CCN(C)CC3)c(C(F)(F)F)c2)cc1C#Cc1cnc2cccnn12 | 406 | > 1000 | 458 | 43.2 | 337 | 391 |  |  |  |  |  | 1.26 | 0 | 0 | 1.07 | 0.248 | 0 | 0.178 | 11.6 | 1.72 | 0.62 | 1.21 | 0.0086 | 0.0834 | 0 | 0.047 | > 1000 |  |  | 
C=C(c1ccc(C(=O)O)cc1)c1cc2c(cc1C)C(C)(C)CCC2(C)C [Bexarotene] | > 10000 | > 10000 |  |  | > 10000 |  | > 10000 | > 10000 | > 10000 |  |  | 0 | 0 | 0 | 0.345 | 3.15 | 0 | 0 | 3.44 | 0 | 0.69 | 0.469 | 0 | 0.973 | 0.367 | 0.925 |  | > 10000 |  | 
CC[C@@H]1C(=O)N(C)c2cnc(Nc3ccc(C(=O)NC4CCN(C)CC4)cc3OC)nc2N1C1CCCC1 [BI 2536] |  | 28.5 | 20.4 | 67.8 | 75.4 |  |  | 109 |  |  |  | 1.24 | 0.933 | 3.73 | 7.89 | 0 | 3.44 | 10.1 | 3.5 | 4.25 | 3.7 | 0.711 | 1 | 1.18 | 2.89 | 2.08 |  |  |  | 
CC(O)(CS(=O)(=O)c1ccc(F)cc1)C(=O)Nc1ccc(C#N)c(C(F)(F)F)c1 (configuration not stated) [Bicalutamide] | > 10000 | > 10000 | > 10000 | > 10000 |  |  | > 10000 | > 10000 | > 10000 | > 10000 | > 10000 | 0 | 0 | 0 | 0 | 0 | 0 | 0 | 0 | 0.0904 | 0 | 0 | 0 | 0 | 0 | 0 | > 10000 | > 10000 | > 10000 | > 10000

Reference: the supplement of paper PMC4932681
